# Experimental data published in PubChem BioAssay (NCI).
#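 The concentration for 50% growth inhibition is given as GI50. Definition used: TGI = concentration required for complete inhibition of growth.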
# Experiments:
# Assay in all cases: DTP human tumour cell line panel, 384-well format
# NCI-H522 lung = test system: NCI-H522 lung
# SF-539 CNS = test system: SF-539 CNS
# HCT-116 colon = test system: HCT-116 colon
# NCI-H460 NSCLC = test system: NCI-H460 NSCLC
# SK-MEL-28 melanoma = test system: SK-MEL-28 melanoma
# DU-145 prostate = test system: DU-145 prostate
# CCRF-CEM leukemia = test system: CCRF-CEM leukemia
# SK-MEL-2 melanoma = test system: SK-MEL-2 melanoma
# A498 renal = test system: A498 renal
# PC-3 prostate = test system: PC-3 prostate
# NCI-H23 lung = test system: NCI-H23 lung
# TK-10 renal = test system: TK-10 renal
# M14 melanoma = test system: M14 melanoma
structure (smiles),measurement,setting,value
CC#CC(=O)N1CC[C@@H](n2c(=O)n(-c3ccc(Oc4ccccc4)cc3)c3c(N)ncnc32)C1,GI50,NCI-H522 lung,5.88 µM
same,TGI,NCI-H522 lung,27.9 µM
same,GI50,SF-539 CNS,21.6 µM
same,TGI,SF-539 CNS,53.6 µM
same,GI50,HCT-116 colon,22.1 µM
same,TGI,HCT-116 colon,54.8 µM
same,GI50,NCI-H460 NSCLC,17.1 µM
same,TGI,NCI-H460 NSCLC,33.4 µM
same,GI50,SK-MEL-28 melanoma,68.3 µM
same,TGI,SK-MEL-28 melanoma,> 100 µM
same,GI50,DU-145 prostate,25.5 µM
same,TGI,DU-145 prostate,> 70.2 µM
same,GI50,CCRF-CEM leukemia,11.4 µM
same,TGI,CCRF-CEM leukemia,23.7 µM
same,GI50,SK-MEL-2 melanoma,18.1 µM
same,TGI,SK-MEL-2 melanoma,34.7 µM
same,GI50,A498 renal,21.7 µM
same,TGI,A498 renal,> 74.2 µM
same,GI50,PC-3 prostate,35.1 µM
same,TGI,PC-3 prostate,> 100 µM
same,GI50,NCI-H23 lung,30.9 µM
same,TGI,NCI-H23 lung,99.6 µM
same,GI50,TK-10 renal,36.5 µM
same,TGI,TK-10 renal,> 100 µM
same,GI50,M14 melanoma,22.7 µM
same,TGI,M14 melanoma,50.1 µM
